According to patent publication US7795457B2, “Carbamate compounds” (Kosan Biosciences Incorporated, priority 2007, dated 2010):
Where two headings read alike, the source gives them in different places.

Assays:
CRM1 substrate RanBP1 = test: Nuclear export block (RanBP1 localization, recovery after compound removal); type: cell-based; conditions: recovery of cytoplasmic RanBP1 localization after compound washout (typically 1 h exposure; 8, 24 or 48 h recovery)
Procedure: The nuclear export blocking capability of compounds of this invention was evaluated as follows:
1-5×10^4 cells were seeded onto 12 mm glass coverslips or wells of a chamber slide (for example, Lab-Tek #177445). Cells were grown overnight at 37° C. to allow cells to attach to the surface. Media was removed and replaced with media containing the desired test compound and incubated the required time period (typically 1 h). For recovery experiments, cells were washed with PBS or media and incubated in media without test compound for the desired recovery periods (typically 8, 24, or 48 h). The media was removed and coverslips/wells were washed with PBS pH 7.4 for 1 minute. Coverslips or slides were fixed with 3.7% formaldehyde in PBS for 20 minutes at room temperature, washed three times in PBS, and stained for the CRM1 substrate RanBP1.
Coverslips or chamber slides were permeabilized and blocked in 10% donkey serum, 0.1% Triton X-100 in PBS for 30 minutes at room temperature. Primary antibodies were diluted in PBS and incubated for 1 hour at room temperature: goat-anti-RanBP1 (Santa Cruz Biotechnology, sc-1160; 1:50 dilution) and mouse-anti-tubulin (Sigma, T9026; 1:400). Cells were washed 3×5 minutes in PBS. Secondary antibodies donkey-anti-goat Cy3 (705-165-147, Jackson Immunoresearch) and donkey anti-mouse FITC (715-095-150, Jackson Immunoresearch) were diluted 1:200 in PBS and incubated for 1 hour at room temperature. Secondary antibody was removed and cells were stained with a nuclear dye such as DAPI (Sigma, D8417; 2.5 ug/mL in PBS) or Hoechst 33342 (Molecular Probes, H3570; 100 ng/mL in PBS) for 5 minutes at room temperature. Cells were washed 3×5 minutes in PBS and coverslips were mounted with FluorSave (EMD Biosciences, 80058-108). Nuclear (N) or cytoplasmic (C) localization of RanBP1 was examined using a 40× objective on a Zeiss Axiovert 200 inverted epiflourescence microscope. Nuclear localization (N>C) was confirmed after the initial drugging period.

HCT-116 = test: Inhibition of tumor cell proliferation, HCT-116; type: cell-based, human; conditions: read-out: Cancer Cell Line (IC50, nM) HCT-116
Procedure: (§1) The biological activity of compounds of this invention was evaluated by measuring their inhibitory effect on the proliferation of various tumor cell lines. HCT-116 is a human colon cancer cell line. LNCap is a human prostate cancer cell line. SiHa is an HPV-16 positive human cervical cancer line.

LNCap = test: Inhibition of tumor cell proliferation, LNCap; type: cell-based, human; conditions: read-out: Cancer Cell Line (IC50, nM) LNCap
Procedure: as §1

SiHa = test: Inhibition of tumor cell proliferation, SiHa; type: cell-based, human; conditions: read-out: Cancer Cell Line (IC50, nM) SiHa
Procedure: as §1

Compound	IC50 (HCT-116; Homo sapiens, HCT-116, 1 h) [nM]	IC50 (SiHa; Homo sapiens, SiHa, 1 h) [nM]	IC50 (HCT-116; exposure time to compound 1 h) [nM]	IC50 (HCT-116; exposure time to compound 72 h) [nM]	IC50 (SiHa; exposure time to compound 1 h) [nM]	other results
CNC(=O)OC/C=C(\C)C[C@H](C)[C@@H](O)[C@H](C)C(=O)[C@H](C)/C=C(C)/C=C/C[C@@H](C)/C=C(C)\C=C\[C@H]1CC=CC(=O)O1 [Compound A-2]	3.7	1.2	–	–	–	Nuclear Export Block (CRM1 substrate RanBP1): Slow recovery; IC50 (HCT-116; Homo sapiens, HCT-116, 72 h): 0.7 nM; IC50 (LNCap; Homo sapiens, LNCaP, 1 h): 2.7 nM; IC50 (LNCap; Homo sapiens, LNCaP, 72 h): 0.4 nM; IC50 (SiHa; Homo sapiens, SiHa, 72 h): 0.4 nM
CC(C=CC1CC=CC(=O)O1)=CC(C)CC=CC(C)=CC(C)C(=O)C(C)C(O)C(C)CC(C)=CCOC(=O)NCCN1CCCC1 (stereo not drawn) [Compound A-5]	–	–	2.2	1.6	2.1	IC50 (LNCap; exposure time to compound 1 h): 1.7 nM; IC50 (LNCap; exposure time to compound 72 h): 0.5 nM
CC(C=CC1CC=CC(=O)O1)=CC(C)CC=CC(C)=CC(C)C(=O)C(C)C(O)C(C)CC(C)=CCOC(=O)NCCc1cccnc1 (stereo not drawn) [Compound A-6]	–	–	2.6	0.8	2.1	Nuclear Export Block (CRM1 substrate RanBP1): Slow recovery; IC50 (LNCap; exposure time to compound 1 h): 2.8 nM; IC50 (LNCap; exposure time to compound 72 h): 0.4 nM
CC(C=CC1CC=CC(=O)O1)=CC(C)CC=CC(C)=CC(C)C(=O)C(C)C(O)C(C)CC(C)=CCOC(=O)NCCN1CCOCC1 (stereo not drawn) [Compound A-7]	–	–	1.8	0.4	0.5	IC50 (LNCap; exposure time to compound 1 h): 1.7 nM; IC50 (LNCap; exposure time to compound 72 h): 0.4 nM
CCN(CC)CCNC(=O)OCC=C(C)CC(C)C(O)C(C)C(=O)C(C)C=C(C)C=CCC(C)C=C(C)C=CC1CC=CC(=O)O1 (stereo not drawn) [Compound A-8]	–	–	2.6	0.8	0.5	IC50 (LNCap; exposure time to compound 1 h): 1.3 nM; IC50 (LNCap; exposure time to compound 72 h): 0.4 nM
CC(C=CC1CC=CC(=O)O1)=CC(C)CC=CC(C)=CC(C)C(=O)C(C)C(O)C(C)CC(C)=CCOC(=O)NCCc1ccc(F)cc1 (stereo not drawn) [Compound A-9]	–	–	13.8	–	8.2	–
COCCNC(=O)OCC=C(C)CC(C)C(O)C(C)C(=O)C(C)C=C(C)C=CCC(C)C=C(C)C=CC1CC=CC(=O)O1 (stereo not drawn) [Compound A-10]	–	–	3.2	–	2.5	–
CC(C=CC1CC=CC(=O)O1)=CC(C)CC=CC(C)=CC(C)C(=O)C(C)C(O)C(C)CC(C)=CCOC(=O)NCCc1c(C)noc1C (stereo not drawn) [Compound A-11]	–	–	4.2	–	3.1	–
CC(C=CC1CC=CC(=O)O1)=CC(C)CC=CC(C)=CC(C)C(=O)C(C)C(O)C(C)CC(C)=CCOC(=O)NCc1ccc(F)cc1 (stereo not drawn) [Compound A-12]	–	–	13.9	–	5.8	–
CC(C=CC1CC=CC(=O)O1)=CC(C)CC=CC(C)=CC(C)C(=O)C(C)C(O)C(C)CC(C)=CCOC(=O)NCCN1CCCC1=O (stereo not drawn) [Compound A-13]	–	–	2.9	–	3.4	–
CC(C=CC1CC=CC(=O)O1)=CC(C)CC=CC(C)=CC(C)C(=O)C(C)C(O)C(C)CC(C)=CCOC(=O)NCCn1ccnc1 (stereo not drawn) [Compound A-14]	–	–	2.9	–	3.8	–
CC(=C/[C@H](C)C/C=C/C(C)=C/[C@@H](C)C(=O)[C@@H](C)[C@H](O)[C@@H](C)C/C(C)=C/COC(=O)NCc1cc(C)on1)/C=C/[C@H]1CC=CC(=O)O1 [Compound A-15]	2.8	3.6	–	–	–	–
CC(=C/[C@H](C)C/C=C/C(C)=C/[C@@H](C)C(=O)[C@@H](C)[C@H](O)[C@@H](C)C/C(C)=C/COC(=O)NCc1ccccn1)/C=C/[C@H]1CC=CC(=O)O1 [Compound A-16]	2.9	3.8	–	–	–	–
CC(=C/[C@H](C)C/C=C/C(C)=C/[C@@H](C)C(=O)[C@@H](C)[C@H](O)[C@@H](C)C/C(C)=C/COC(=O)NC[C@@H](O)CO)/C=C/[C@H]1CC=CC(=O)O1 [Compound A-17]	3.6	3.2	–	–	–	–
CC(C=CC1CC=CC(=O)O1)=CC(C)CC=CC(C)=CC(C)C(=O)C(C)C(OC(N)=O)C(C)CC(C)=CCOC(=O)N(Cc1ccccc1)C(N)=O (stereo not drawn) [Compound A-18]	–	–	20.3	–	22.5	–
CC(=C/[C@H](C)C/C=C/C(C)=C/[C@@H](C)C(=O)[C@@H](C)[C@H](O)[C@@H](C)C/C(C)=C/COC(=O)NCc1nccs1)/C=C/[C@H]1CC=CC(=O)O1 [Compound A-19]	4.4	4.5	–	–	–	–
CC(C=CC1CC=CC(=O)O1)=CC(C)CC=CC(C)=CC(C)C(=O)C(C)C(OC(N)=O)C(C)CC(C)=CCOC(=O)NCc1nccs1 (stereo not drawn) [Compound A-20]	–	–	9.4	2.6	4.6	–
CC(=C/[C@H](C)C/C=C/C(C)=C/[C@@H](C)C(=O)[C@@H](C)[C@H](O)[C@@H](C)C/C(C)=C/COC(=O)NCc1ccc(C(F)(F)F)cn1)/C=C/[C@H]1CC=CC(=O)O1 [Compound A-21]	20	11.5	–	–	–	IC50 (HCT-116; Homo sapiens, HCT-116, 72 h): 3.1 nM
CC(=C/[C@H](C)C/C=C/C(C)=C/[C@@H](C)C(=O)[C@@H](C)[C@H](O)[C@@H](C)C/C(C)=C/COC(=O)NCc1ccc(C(F)(F)F)nc1)/C=C/[C@H]1CC=CC(=O)O1 [Compound A-22]	18.1	–	–	–	–	–
CC(=C/[C@H](C)C/C=C/C(C)=C/[C@@H](C)C(=O)[C@@H](C)[C@H](O)[C@@H](C)C/C(C)=C/COC(=O)NCc1cccc(C(F)(F)F)n1)/C=C/[C@H]1CC=CC(=O)O1 [Compound A-23]	21.5	–	–	–	–	–
CC(=C/[C@H](C)C/C=C/C(C)=C/[C@@H](C)C(=O)[C@@H](C)[C@H](OC(N)=O)[C@@H](C)C/C(C)=C/CO)/C=C/[C@H]1CC=CC(=O)O1 [IV]	8.1	3.3	–	–	–	–
CC(/C=C/C[C@@H](C)/C=C(C)/C=C/[C@@H]1OC(=O)C=C[C@@H]1C)=C\[C@@H](C)C(=O)[C@@H](C)[C@H](O)[C@@H](C)C/C(C)=C/C(=O)O [Leptomycin A, leptomycin A, reference compound]	–	–	19	1.4	–	Nuclear Export Block (CRM1 substrate RanBP1): Fast recovery; IC50 (SiHa; exposure time to compound 72 h): 0.5 nM
leptolstatin [reference compound]	–	–	5.5	0.49	1.6	Nuclear Export Block (CRM1 substrate RanBP1): Slow recovery; IC50 (SiHa; exposure time to compound 72 h): 0.45 nM
